Tests used:
Oxytocin receptor [1] = target: T1, Oxytocin receptor (Homo sapiens, UniProt P30559); test: Agonist activity at human oxytocin receptor expressed in CHO cells assessed as increase in intracellular calcium flux measured for 90 sec by fluo-4 dye based FLIPR assay; type: functional, cell-based
T1 sequence (P30559 whole entry): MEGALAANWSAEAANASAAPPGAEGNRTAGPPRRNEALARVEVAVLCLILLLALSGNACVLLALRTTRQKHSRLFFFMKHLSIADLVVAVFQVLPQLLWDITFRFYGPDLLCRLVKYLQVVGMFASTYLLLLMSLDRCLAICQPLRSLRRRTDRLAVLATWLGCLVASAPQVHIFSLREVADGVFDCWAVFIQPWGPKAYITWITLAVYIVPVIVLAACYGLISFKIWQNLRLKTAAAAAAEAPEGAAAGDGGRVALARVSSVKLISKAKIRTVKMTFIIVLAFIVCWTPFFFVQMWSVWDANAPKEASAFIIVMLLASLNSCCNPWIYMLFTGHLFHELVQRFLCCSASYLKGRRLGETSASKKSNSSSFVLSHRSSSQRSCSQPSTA

[2] = target: T2, Oxytocin receptor (Homo sapiens) (UniProt P30559); test: Intrinsic agonist activity at human oxytocin receptor expressed in CHO cells assessed as increase in intracellular calcium flux measured for 90 sec by fluo-4 dye based FLIPR assay relative to control; type: functional, cell-based
T2 sequence (whole entry): T1 sequence (P30559 whole entry)

Oxytocin receptor [3] = target: T1, Oxytocin receptor; test: Displacement of [3H]8-arginine-vasopressin from human oxytocin receptor expressed in CHO cell membrane incubated for 1 hr by liquid scintillation counting method; type: cell membranes

For `CC[C@H](C)[C@H]1C(=O)N[C@@H](CCC(N)=O)C(=O)N[C@@H](CC(N)=O)C(=O)N(C)[C@H](C(=O)N2CCC[C@H]2C(=O)N[C@@H](CC(C)C)C(=O)NCC(N)=O)CSSC[C@H](N)C(=O)N[C@@H](Cc2ccc(O)cc2)C(=O)N1C`, the EC50 (Oxytocin receptor [1]) was 283 nM and the Intrinsic activity [2] was 94%.
With `CC[C@H](C)[C@@H]1NC(=O)[C@H](Cc2ccc(O)cc2)NC(=O)[C@@H](N)CSSC[C@@H](C(=O)N2CCC[C@H]2C(=O)N[C@@H](CC(C)C)C(=O)N(C)CC(N)=O)N(C)C(=O)[C@H](CC(N)=O)NC(=O)[C@H](CCC(N)=O)NC1=O` the EC50 (Oxytocin receptor [1]) was 10.8 nM, the Ki (Oxytocin receptor [3]) was 34.3 nM and the Intrinsic activity [2] was 90%.
Work on `CC[C@H](C)[C@@H]1NC(=O)[C@H](Cc2ccc(O)cc2)NC(=O)CCSSC[C@@H](C(=O)N2CCC[C@H]2C(=O)N[C@@H](CC(C)C)C(=O)NCC(N)=O)NC(=O)[C@H](CC(N)=O)NC(=O)[C@H](CCC(N)=O)NC1=O` yielded a Ki (Oxytocin receptor [3]) of 0.33 nM and an Intrinsic activity [2] of 106%.
With `CC[C@H](C)[C@@H]1NC(=O)[C@H](Cc2ccc(O)cc2)N(C)C(=O)[C@@H](N)CSSC[C@@H](C(=O)N2CCC[C@H]2C(=O)N[C@@H](CC(C)C)C(=O)NCC(N)=O)NC(=O)[C@H](CC(N)=O)NC(=O)[C@H](CCC(N)=O)NC1=O` the EC50 (Oxytocin receptor [1]) was 23.9 nM, the Ki (Oxytocin receptor [3]) was 6.76 nM and the Intrinsic activity [2] was 98%.
`CC[C@H](C)[C@@H]1NC(=O)[C@H](Cc2ccc(O)cc2)NC(=O)[C@@H](N)CSSC[C@@H](C(=O)N2CCC[C@H]2C(=O)N[C@@H](CC(C)C)C(=O)NCC(N)=O)NC(=O)[C@H](CC(N)=O)NC(=O)[C@H](CCC(N)=O)NC1=O` showed an Intrinsic activity [2] of 102%.
`CC[C@H](C)[C@@H]1NC(=O)[C@H](Cc2ccc(O)cc2)NC(=O)CCSSC[C@@H](C(=O)N2CCC[C@H]2C(=O)N[C@@H](CC(C)C)C(=O)NCC(N)=O)N(C)C(=O)[C@H](CC(N)=O)NC(=O)[C@H](CCC(N)=O)NC1=O` was tested, and the EC50 (Oxytocin receptor [1]) was 0.29 nM and the Intrinsic activity [2] was 84%.
In the case of `CC[C@H](C)[C@@H]1NC(=O)[C@H](Cc2ccc(O)cc2)NC(=O)[C@@H](N)CSSC[C@@H](C(=O)N2CCC[C@H]2C(=O)N(C)[C@@H](CC(C)C)C(=O)NCC(N)=O)NC(=O)[C@H](CC(N)=O)NC(=O)[C@H](CCC(N)=O)NC1=O`, the EC50 (Oxytocin receptor [1]) is reported as 0.52 nM, the Ki (Oxytocin receptor [3]) is reported as 0.97 nM and the Intrinsic activity [2] is reported as 97%.
In the case of `CC[C@H](C)[C@@H]1NC(=O)[C@H](Cc2ccc(O)cc2)NC(=O)[C@@H](N)CSSC[C@@H](C(=O)N2CCC[C@H]2C(=O)N[C@@H](CC(C)C)C(=O)NCC(N)=O)NC(=O)[C@H](CC(N)=O)N(C)C(=O)[C@H](CCC(N)=O)NC1=O`, the EC50 (Oxytocin receptor [1]) is reported as 26 nM, the Ki (Oxytocin receptor [3]) is reported as 31.5 nM and the Intrinsic activity [2] is reported as 100%.
Work on `CC[C@H](C)[C@@H]1NC(=O)[C@H](Cc2ccc(O)cc2)NC(=O)CCSSC[C@@H](C(=O)N2CCC[C@H]2C(=O)N[C@@H](CC(C)C)C(=O)N(C)CC(N)=O)N(C)C(=O)[C@H](CC(N)=O)NC(=O)[C@H](CCC(N)=O)NC1=O` yielded an EC50 (Oxytocin receptor [1]) of 2.41 nM and an Intrinsic activity [2] of 84%.
For `CC[C@H](C)[C@H]1C(=O)N[C@@H](CCC(N)=O)C(=O)N[C@@H](CC(N)=O)C(=O)N(C)[C@H](C(=O)N2CCC[C@H]2C(=O)N[C@@H](CC(C)C)C(=O)NCC(N)=O)CSSCCC(=O)N[C@@H](Cc2ccc(O)cc2)C(=O)N1C`, the EC50 (Oxytocin receptor [1]) was > 1000 nM.
With `CC[C@H](C)[C@@H]1NC(=O)[C@H](Cc2ccc(O)cc2)NC(=O)CCSSC[C@@H](C(=O)N2CCC[C@H]2C(=O)N(C)[C@@H](CC(C)C)C(=O)NCC(N)=O)N(C)C(=O)[C@H](CC(N)=O)NC(=O)[C@H](CCC(N)=O)NC1=O` the EC50 (Oxytocin receptor [1]) was 4.23 nM and the Intrinsic activity [2] was 86%.
With `CC[C@H](C)[C@@H]1NC(=O)[C@H](Cc2ccc(O)cc2)NC(=O)[C@@H](N)CSSC[C@@H](C(=O)N2CCC[C@H]2C(=O)N[C@@H](CC(C)C)C(=O)NCC(N)=O)N(C)C(=O)[C@H](CC(N)=O)NC(=O)[C@H](CCC(N)=O)NC1=O` the EC50 (Oxytocin receptor [1]) was 0.99 nM, the Ki (Oxytocin receptor [3]) was 1.05 nM and the Intrinsic activity [2] was 95%.
With `CC[C@H](C)[C@@H]1NC(=O)[C@H](Cc2ccc(O)cc2)NC(=O)[C@@H](N)CSSC[C@@H](C(=O)N2CCC[C@H]2C(=O)N[C@@H](CC(C)C)C(=O)NCC(N)=O)NC(=O)[C@H](CC(N)=O)NC(=O)[C@H](CCC(N)=O)N(C)C1=O` the EC50 (Oxytocin receptor [1]) was > 1000 nM and the Ki (Oxytocin receptor [3]) was > 1010 nM.
`CC[C@H](C)[C@@H]1NC(=O)[C@H](Cc2ccc(O)cc2)NC(=O)CCSSC[C@@H](C(=O)N2CCC[C@H]2C(=O)N(C)[C@@H](CC(C)C)C(=O)N(C)CC(N)=O)NC(=O)[C@H](CC(N)=O)NC(=O)[C@H](CCC(N)=O)NC1=O` gave an EC50 (Oxytocin receptor [1]) of 0.59 nM and an Intrinsic activity [2] of 86%.
`CC[C@H](C)[C@@H]1NC(=O)[C@H](Cc2ccc(O)cc2)NC(=O)[C@@H](NC)CSSC[C@@H](C(=O)N2CCC[C@H]2C(=O)N[C@@H](CC(C)C)C(=O)NCC(N)=O)NC(=O)[C@H](CC(N)=O)NC(=O)[C@H](CCC(N)=O)NC1=O` was tested, and the EC50 (Oxytocin receptor [1]) was 4.77 nM, the Ki (Oxytocin receptor [3]) was 5.47 nM and the Intrinsic activity [2] was 102%.
Work on `CC[C@H](C)[C@@H]1NC(=O)[C@H](Cc2ccc(O)cc2)N(C)C(=O)[C@@H](N)CSSC[C@@H](C(=O)N2CCC[C@H]2C(=O)N[C@@H](CC(C)C)C(=O)NCC(N)=O)N(C)C(=O)[C@H](CC(N)=O)NC(=O)[C@H](CCC(N)=O)NC1=O` yielded an EC50 (Oxytocin receptor [1]) of 6.98 nM and an Intrinsic activity [2] of 78%.
For `CC[C@H](C)[C@@H]1NC(=O)[C@H](Cc2ccc(O)cc2)NC(=O)[C@@H](N)CSSC[C@@H](C(=O)N2CCC[C@H]2C(=O)N(C)[C@@H](CC(C)C)C(=O)NCC(N)=O)N(C)C(=O)[C@H](CC(N)=O)NC(=O)[C@H](CCC(N)=O)NC1=O`, the EC50 (Oxytocin receptor [1]) was 15.6 nM, the Ki (Oxytocin receptor [3]) was 68.5 nM and the Intrinsic activity [2] was 83%.
`CC[C@H](C)[C@@H]1NC(=O)[C@H](Cc2ccc(O)cc2)NC(=O)[C@@H](NC)CSSC[C@@H](C(=O)N2CCC[C@H]2C(=O)N[C@@H](CC(C)C)C(=O)NCC(N)=O)N(C)C(=O)[C@H](CC(N)=O)NC(=O)[C@H](CCC(N)=O)NC1=O` was tested, and the EC50 (Oxytocin receptor [1]) was 175 nM, the Ki (Oxytocin receptor [3]) was 98.6 nM and the Intrinsic activity [2] was 81%.
Work on `CC[C@H](C)[C@@H]1NC(=O)[C@H](Cc2ccc(O)cc2)N(C)C(=O)CCSSC[C@@H](C(=O)N2CCC[C@H]2C(=O)N[C@@H](CC(C)C)C(=O)NCC(N)=O)N(C)C(=O)[C@H](CC(N)=O)NC(=O)[C@H](CCC(N)=O)NC1=O` yielded an EC50 (Oxytocin receptor [1]) of 7.98 nM and an Intrinsic activity [2] of 97%.
In the case of `CC[C@H](C)[C@H]1C(=O)N[C@@H](CCC(N)=O)C(=O)N[C@@H](CC(N)=O)C(=O)N[C@H](C(=O)N2CCC[C@H]2C(=O)N[C@@H](CC(C)C)C(=O)NCC(N)=O)CSSC[C@H](N)C(=O)N[C@@H](Cc2ccc(O)cc2)C(=O)N1C`, the EC50 (Oxytocin receptor [1]) is reported as 14.7 nM, the Ki (Oxytocin receptor [3]) is reported as 113 nM and the Intrinsic activity [2] is reported as 100%.
`CC[C@H](C)[C@@H]1NC(=O)[C@H](Cc2ccc(O)cc2)NC(=O)[C@@H](N)CSSC[C@@H](C(=O)N2CCC[C@H]2C(=O)N[C@@H](CC(C)C)C(=O)N(C)CC(N)=O)NC(=O)[C@H](CC(N)=O)NC(=O)[C@H](CCC(N)=O)NC1=O` showed an EC50 (Oxytocin receptor [1]) of 0.47 nM, a Ki (Oxytocin receptor [3]) of 1.32 nM and an Intrinsic activity [2] of 102%.
`CC[C@H](C)[C@@H]1NC(=O)[C@H](Cc2ccc(O)cc2)NC(=O)[C@@H](N)CSSC[C@@H](C(=O)N2CCC[C@H]2C(=O)N(C)[C@@H](CC(C)C)C(=O)N(C)CC(N)=O)NC(=O)[C@H](CC(N)=O)NC(=O)[C@H](CCC(N)=O)NC1=O` gave an EC50 (Oxytocin receptor [1]) of 5.52 nM, a Ki (Oxytocin receptor [3]) of 10.7 nM and an Intrinsic activity [2] of 96%.

Reference: ChEMBL document CHEMBL3813659 (Bioorg Med Chem, 2016)
